{"source": "patent US12527806B2", "about": "“Composition for preventing or treating diabetes mellitus” (SEOUL NATIONAL UNIVERSITY R&DB FOUNDATION, priority 2020, dated 2026)", "system": "MIN-6 cells", "assay": "Cytotoxicity: cell viability of MIN-6 cells by AOPI staining and cell counter", "conditions": "24 hours", "data": [{"smiles": "NC(=O)c1cccnc1", "note": "[nicotinamide]", "values": [{"measurement": "cytotoxicity (cell viability)", "setting": "0.5 mM to 40 mM of each factor", "value": "did not show cytotoxicity"}]}, {"smiles": "CN(CC(=O)N(Cc1ccc(C2CCCCC2)cc1)c1ccc(C(=O)O)c(O)c1)S(=O)(=O)c1c(F)c(F)c(F)c(F)c1F", "note": "[BP-1-102]", "values": [{"measurement": "cell viability", "setting": "40 μM", "value": "about 59%"}, {"measurement": "cytotoxicity (cell viability)", "setting": "up to 20 μM", "value": "no cytotoxicity was shown"}]}, {"smiles": "N[C@H]1C(O)O[C@H](CO)[C@@H](O)[C@@H]1O", "note": "(stereo partly shown) [glucosamine]", "values": [{"measurement": "cytotoxicity (cell viability)", "setting": "0.5 mM to 40 mM of each factor", "value": "did not show cytotoxicity"}]}]}
